Laboratory results reported in patent publication US10213428B2, “(4-((3R,4R)-3-methoxytetrahydro-pyran-4-ylamino)piperidin-1-yl)(5-methyl-6-(((2R,6S)-6-(p-tolyl)tetrahydro-2H-pyran-2-yl)methylamino)pyrimidin-4-yl)methanone citrate” (Centrexion Therapeutics Corporation, priority 2015, dated 2019).

Experiments:
[1] = X-ray powder diffraction: crystallinity and polymorphism; type: physicochemical
Description: X-ray powder diagrams were generated using a STOE-STADI P-diffractometer in transmission mode fitted with a MYTHEN-detector and a Cu-anode as X-ray source with monochromatic CuKα1 radiation (λ=1.54056 Å, 40 kV, 40 mA).

[2] = In vitro plasma protein binding (equilibrium dialysis), mouse; type: in vitro ADME; conditions: pH 7.4, dialysis 2 hours at 37° C., read-out: Fraction bound (converted)
Procedure: (§1) Dianorm Teflon dialysis cells (micro 0.2) are used. Each cell consists of a donor (i.e., buffer chamber) and an acceptor chamber (i.e., plasma chamber), separated by an ultrathin semipermeable membrane with a 5 kDa molecular weight cutoff. Stock solutions for each test compound are prepared in DMSO at 1 mM and diluted to a final concentration of 1.0 μM. Aliquots of 200 μL dialysis buffer (100 mM potassium phosphate, pH 7.4) are dispensed into the buffer chamber. Aliquots of 200 μL test compound dialysis solution are dispensed into the plasma chambers. Incubation is carried out for 2 hours under rotation at 37° C. Then, the dialysate is transferred into reaction tubes. The tubes for the buffer fraction contain 0.2 mL acetonitril/water (80/20 volume/volume). Aliquots of 25 μL of the plasma dialysate are transferred into deep well plates and mixed with 25 μL acetonitril/water (80/20 volume/volume), 25 μL buffer, 25 μL calibration solution and 25 μL Internal Standard solution. Protein precipitation is done by adding 200 μL acetonitrile. Aliquots of 50 μL of the buffer dialysate are transferred into deep well plates and mixed with 25 μL blank plasma, 25 μL Internal Standard solution and 200 μL acetonitril. Percent bound is calculated with the formula: % bound=(plasma concentration−buffer concentration/plasma concentration)×100.

[3] = tested on: plasma protein; assay: as above; type: in vitro ADME; conditions: 1.0 μM, dialysis 2 hours at 37° C.
Procedure: as §1

[4] = In vitro plasma protein binding (equilibrium dialysis), minipig; type: in vitro ADME; conditions: pH 7.4, dialysis 2 hours at 37° C., read-out: Fraction bound (converted)
Procedure: as §1

[5] = tested on: plasma protein; assay: as above; type: in vitro ADME; conditions: 1.0 μM, dialysis 2 hours at 37° C.
Procedure: as §1

[6] = In vitro metabolic stability in hepatocyte incubations, mouse; type: in vitro ADME; conditions: hepatocytes (suspension); Mouse; predicted from hepatocyte CL intrinsic, well stirred model; read-out: CL, in vivo
Procedure: (§2) Metabolic degradation of the test compound is assayed in a hepatocyte suspension. Hepatocytes are incubated in an appropriate buffer system. Following a (typically) 30 min preincubation in an incubator (37° C., 10% CO2) 5 μL of test compound solution (1 μM) are added into 395 μL hepatocyte suspension (cell density in the range 0.25-5 Mio cells/mL, typically 1 Mio cells/mL, final DMSO concentration 0.05%). The cells are incubated for six hours (incubator, orbital shaker) and samples (25 μL) are taken at 0, 0.5, 1, 2, 4 and 6 hours. Samples are transferred into acetonitrile and pelleted by centrifugation (5 min). The supernatant is transferred to a new 96-deepwell plate, evaporated under nitrogen and resuspended. Decline of parent compound is analyzed by HPLC-MS/MS. CLint is calculated as follows CL_INTRINSIC=Dose/AUC=(CO/CD)/(AUD+clast/k)×1000/60. […]

[7] = In vitro metabolic stability in hepatocyte incubations, rat; type: in vitro ADME; conditions: hepatocytes (suspension); Rat; predicted from hepatocyte CL intrinsic, well stirred model; read-out: CL, in vivo
Procedure: as §2

[8] = tested on: hepatocytes; assay: as above; type: in vitro ADME; conditions: Rat hepatocytes, 1 μM
Procedure: as §2

[9] = Intravenous pharmacokinetics in mouse; type: in vivo, BALB/c mice; conditions: IV dose 10 μmol/kg, mean values
Description: (§3) The pharmacokinetics of the test compound following single intravenous (IV) or oral (PO) doses were examined in • female BALB/c mice (average weight: 25 g) • male Wistar(Han) rats (average weight: 260 g) • male and female Göttingen Minipigs (average weight: 24 kg) • male beagle dogs (average weight: 15 kg) All non-rodent species were fasted overnight prior to dosing, while mice and rats had food and water available ad libitum. The p.o. dose of the compound was usually administered as suspension in 0.5% Natrosol or as a 0.5% Natrosol/0.015% Tween 80 suspension. For i.v. dosing purposes, the doses were applied as a solution in 0.9% NaCL, or as a solution containing 9.1% HP-beta Cyclodextrin in water.
(§4) Blood was collected by venous sampling and soaking of the blood in EDTA coated tubes. Samples were collected for up to 48 h after administration of the test compound. Plasma was then separated by centrifugation (5 min by approximately 9000 g at 4° C.). For determination of the test compound, plasma was transferred into PCR plates. All samples were stored at approximately −20° C. until bioanalytics. The test compound concentrations in plasma were determined by HPLC MS/MS. The lower limit of quantification was between 0.5 nmol/L and 1 nmol/L.

[10] = Intravenous pharmacokinetics in rat; type: in vivo, Wistar(Han) rats; conditions: IV dose 5 μmol/kg, mean values
Description: as §3, §4

[11] = Intravenous pharmacokinetics in dog; type: in vivo, beagle dogs; conditions: IV dose 5 μmol/kg, mean values
Description: as §3, §4

[12] = Oral pharmacokinetics in rat; type: in vivo, Wistar(Han) rats; conditions: oral dose 20 μmol/kg of compound I
Description: as §3, §4

[13] = Oral pharmacokinetics in dog; type: in vivo, beagle dogs; conditions: oral dose 5 μmol/kg
Description: as §3, §4

[14] = female, BALB/c, plasma, 10 umol/kg
[15] = male, Wistar(Han), plasma, 5 umol/kg
[16] = male, beagle, plasma, 5 umol/kg
[17] = male, Wistar(Han), plasma, 20 umol/kg, mean values
[18] = male, beagle, plasma, 5 umol/kg, mean values

CO[C@H]1COCC[C@H]1NC1CCN(C(=O)c2ncnc(NC[C@H]3CCC[C@@H](c4ccc(C)cc4)O3)c2C)CC1 [compound I, (4-((3R,4R)-3-methoxytetrahydro-pyran-4-ylamino)piperidin-1-yl)(5-methyl-6-(((2R,6S)-6-(p-tolyl)tetrahydro-2H-pyran-2-yl)methylamino)pyrimidin-4-yl)methanone]
crystallinity [1]: amorphous material | fraction unbound at 2 h, 1 μM [2]: 0.049 | Fraction unbound [3]: 4.9% | fraction unbound at 2 h, 1 μM [4]: 0.392 | Fraction unbound [5]: 39.2% | CLhep predicted at 1 μM [6]: 49 mL/min/kg | CLhep predicted at 1 μM [7]: 26 mL/min/kg | CL intrinsic, in vitro [8]: 8.77 μL/min/10e6 cells | MRTdisp [9]: 0.623 h | AUC(0-inf) [9, 14]: 1.99 µM·h | clearance [9, 14]: 86 mL/min/kg | Vd ([9]; female, BALB/c, plasma, 10 umol/kg, read-out: Vss): 3.29 L/kg | MRTdisp [10]: 1.49 h | AUC(0-inf) [10, 15]: 1.49 µM·h | clearance [10, 15]: 56.1 mL/min/kg | Vd ([10]; male, Wistar(Han), plasma, 5 umol/kg, read-out: Vss): 5.04 L/kg | MRTdisp [11]: 6.40 h | AUC(0-inf) [11, 16]: 5.99 µM·h | clearance [11, 16]: 14 mL/min/kg | Vd ([11]; male, beagle, plasma, 5 umol/kg, read-out: Vss): 4.94 L/kg | AUC(0-inf) [12, 17]: 2.27 µM·h | Cmax [12, 17]: 580 nM | Tmax [12, 17]: 1.5 h | MRTtot ([12]; mean values): 5.49 h | F ([12]; oral bioavailability): 38% | AUC(0-inf) [13, 18]: 1.5 µM·h | Cmax [13, 18]: 317 nM | Tmax [13, 18]: 0.917 h | MRTtot ([13]; mean values): 5.77 h | F ([13]; oral bioavailability): 25%
